From ChEMBL document CHEMBL5244219, “Recent developments of quinolone-based derivatives and their activities against Escherichia coli” (Eur J Med Chem, 2018) come the findings set out here.

The subject of series [1] is Escherichia coli. As to the kind of experiment: Antibacterial activity against Escherichia coli DC2 assessed as bacterial growth inhibition. It is filed as functional.
Series [2] concerns Escherichia coli. As to the kind of experiment: Antibacterial activity against Escherichia coli DC0 assessed as bacterial growth inhibition. It is filed as functional.
The next series addresses DNA gyrase (Escherichia coli, UniProt P0AES4+P0AES6). The series is described as follows: Inhibition of Escherichia coli DNA gyrase. The format is protein-complex assay.
Series [3] has as its system Escherichia coli. The series is described as follows: Antibacterial activity against Escherichia coli ES142 assessed as bacterial growth inhibition. It is filed as functional.
For series [4], the system named is Escherichia coli. As to the kind of experiment: Potency index, ratio of ciprofloxacin MIC to compound IC50 for antibacterial activity against Escherichia coli DH52. It is filed as functional. The settings on record: time 24 hrs.
The test system of series [5] is Escherichia coli. As to the kind of experiment: Potency index, ratio of ciprofloxacin MIC to compound IC50 for antibacterial activity against Escherichia coli JM109. The format is functional.
The subject of series [6] is Escherichia coli. As to the kind of experiment: Potency index, ratio of norfloxacin MIC to compound IC50 for antibacterial activity against Escherichia coli DH52. It is filed as functional.
The subject of series [7] is Escherichia coli. As to the kind of experiment: Potency index, ratio of norfloxacin MIC to compound IC50 for antibacterial activity against Escherichia coli JM109. It is filed as functional.
Series [8] has as its system Escherichia coli. As to the kind of experiment: Antibacterial activity against Escherichia coli DH52 assessed as bacterial growth inhibition. It is filed as functional.
Series [9] relates to Escherichia coli. The series is described as follows: Antibacterial activity against Escherichia coli JM109 assessed as bacterial growth inhibition. The format is functional.
Series [10] relates to Escherichia coli. As to the kind of experiment: Antibacterial activity against Escherichia coli ATCC 25922 assessed as bacterial growth inhibition. The format is functional.
In series [11] the test system is Escherichia coli. The series is described as follows: Antibacterial activity against drug-sensitive Escherichia coli assessed as bacterial growth inhibition. It is filed as functional.
Series [12] deals with Escherichia coli. As to the kind of experiment: Antibacterial activity against Escherichia coli DC2 assessed as bacterial growth inhibition by agar dilution method. It is filed as functional.
Series [13] deals with Escherichia coli. As to the kind of experiment: Antibacterial activity against Escherichia coli DC0 assessed as bacterial growth inhibition by agar dilution method. It is filed as functional. In general terms: In agar dilution, organisms are placed on agar that contains the substance at set levels.
For series [14], the system named is Escherichia coli. The series is described as follows: Potency index, ratio of ceftazidime MIC to compound IC50 for antibacterial activity against Escherichia coli DC2. It is filed as functional.
In series [15] the test system is Escherichia coli. The series is described as follows: Potency index, ratio of ceftazidime MIC to compound IC50 for antibacterial activity against Escherichia coli DC0. The format is functional.
The nature of series [16]: AUC in marmoset at 3 mg/kg, iv. On the set-up: dose 3 mg/kg, route iv. The settings on record: callitrichinae sp., in vivo. It is filed as ADME, organism-based.
A short description of series [17]: Half life in marmoset at 3 mg/kg, iv. It is filed as ADME, organism-based. The settings on record: callitrichinae sp., in vivo.
Series [18] can be described thus: Protein binding in marmoset plasma. The format is ADME, cell-free, Callithrix jacchus. The settings on record: read-out: PPB (converted).
For series [19], the system named is Escherichia coli. The series is described as follows: Antibacterial activity against Escherichia coli assessed as bacterial growth inhibition. It is filed as functional.
The test system of series [20] is Escherichia coli. As to the kind of experiment: Antibacterial activity against Escherichia coli NCTC 10419 assessed as bacterial growth inhibition. It is filed as functional.
For series [21], the system named is Escherichia coli. As to the kind of experiment: Antibacterial activity against Escherichia coli NCDC 134 assessed as bacterial growth inhibition. The format is functional.
Series [22] relates to Escherichia coli. The series is described as follows: Antibacterial activity against Escherichia coli H560 assessed as bacterial growth inhibition. The format is functional.
The subject of series [23] is Escherichia coli. As to the kind of experiment: Antibacterial activity against Escherichia coli 2010-05 assessed as bacterial growth inhibition measured after 24 hrs by agar dilution method. It is filed as functional.
Series [24] deals with Escherichia coli. As to the kind of experiment: Antibacterial activity against Escherichia coli NIHJ JC-2 assessed as bacterial growth inhibition. The format is functional.
For series [25], the system named is Escherichia coli. As to the kind of experiment: Antibacterial activity against Escherichia coli assessed as bacterial growth inhibition by microdilution method. It is filed as functional.
Series [26] relates to Escherichia coli. As to the kind of experiment: Antibacterial activity against Escherichia coli KC-14 infected in po dosed mouse assessed as bacterial growth inhibition. The format is functional.
Series [27] deals with Escherichia coli. The series is described as follows: Antibacterial activity against Escherichia coli assessed as bacterial growth inhibition incubated for 18 hrs by twofold serial dilution assay. It is filed as functional.
Series [28] relates to Escherichia coli. As to the kind of experiment: Antibacterial activity against Escherichia coli TolC assessed as bacterial growth inhibition. The format is functional.
For series [29], the system named is Escherichia coli. As to the kind of experiment: In vivo antibacterial activity against Escherichia coli H560 infected in sc dosed CD-1 mouse assessed as bacterial growth inhibition. It is filed as functional. The settings on record: read-out: PD50.
Series [30] deals with Escherichia coli. The series is described as follows: Antibacterial activity against Escherichia coli assessed as bacterial growth inhibition by agar dilution method. It is filed as functional.
Series [31] concerns Escherichia coli. As to the kind of experiment: Antibacterial activity against Escherichia coli 2010-29 assessed as bacterial growth inhibition measured after 24 hrs by agar dilution method. It is filed as functional.
Series [32] concerns Escherichia coli. The series is described as follows: In vivo antibacterial activity against Escherichia coli H560 infected in po dosed CD-1 mouse assessed as bacterial growth inhibition. The format is functional. The settings on record: read-out: PD50.
The subject of series [33] is Escherichia coli. The series is described as follows: In vivo antibacterial activity against Escherichia coli NCTC 10419 infected in po dosed CF-mouse assessed as bacterial growth inhibition. The format is functional, organism-based.
Series [34] has as its system Escherichia coli. As to the kind of experiment: Antibacterial activity against clinical isolate Escherichia coli assessed as bacterial growth inhibition incubated for 24 hrs by agar dilution method. It is filed as functional.
Series [35] relates to Escherichia coli. As to the kind of experiment: Antibacterial activity against Escherichia coli K-12 C600 assessed as bacterial growth inhibition. The format is functional.
Series [36] relates to Escherichia coli. The series is described as follows: Antibacterial activity against Escherichia coli assessed as zone of inhibition at 5 ug per disc. It is filed as functional. The settings on record: read-out: DIZ.
For series [37], the system named is Escherichia coli. As to the kind of experiment: Antibacterial activity against Escherichia coli KC-14 assessed as bacterial growth inhibition. It is filed as functional.
The mark [38] stands for this setting: Escherichia coli, KC-14, po, read-out: ED50.

≈ marks a conversion by molar mass, not a printed value.

Turning to `C[C@H]1COc2cc(N3CC[C@@H](C(C)(C)N)C3)cc3c(=O)c(C(=O)O)cn1c23`, the minimum inhibitory concentration (MIC) with Escherichia coli [1], in the series on Escherichia coli [2] and in the series with Escherichia coli [3] was 0.063 µg/mL (≈ 0.17 µM) in each case. This molecule also gave an IC50 at DNA gyrase of 8.62 µM.
Take `Cc1c(N2CCN(Cc3nc4ccccc4n3Cc3ccc(Cl)cc3Cl)CC2)c(F)cc2c(=O)c(C(=O)O)cn(C3CC3)c12`: the Ratio with Escherichia coli [4], in the series with Escherichia coli [5], in the series with Escherichia coli [6] and in the series with Escherichia coli [7] was 2 throughout. Also, the MIC in the series with Escherichia coli [8] and in the series on Escherichia coli [9] was 0.125 µg/mL (≈ 0.197 µM) in each case.
Consider `C[C@@H](O)[C@H]1C(=O)N2C(C(=O)O)=C(COC(=O)N[C@H]3CCN(c4c(F)cc5c(=O)c(C(=O)O)cn(C6CC6)c5c4F)C3)S[C@H]12`, for which the MIC in the series with Escherichia coli [10] was no more than 0.06 µg/mL.
For the molecule `O=C(O)c1cn(C2CC2)c2cc(N3CCN([C@@H]4O[C@H](CO)[C@H](O)[C@H](O)[C@H]4O)CC3)c(F)cc2c1=O`, in the series with Escherichia coli [11], the minimal inhibitory concentration (MIC) is no more than 0.03 µg/mL.
For the molecule `Cc1c(N2CCN(c3nc4ccccc4[nH]3)CC2)c(F)cc2c(=O)c(C(=O)O)cn(C3CC3)c12`, the Ratio with Escherichia coli [4], with Escherichia coli [5], in the series on Escherichia coli [6] and in the series with Escherichia coli [7] was 2 throughout. For the same molecule, the minimum inhibitory concentration (MIC) with Escherichia coli [8] and with Escherichia coli [9] was 0.125 µg/mL (≈ 0.271 µM) in each case.
For `CCO/N=C(\C(=O)N[C@@H]1C(=O)N2C(C(=O)O)=C(CNC(=O)c3cn(CC)c4cc(O)c(O)cc4c3=O)CSC12)c1csc(N)n1` (stereo in doubt), the minimum inhibitory concentration (MIC) in the series on Escherichia coli [12] and with Escherichia coli [13] was 0.008 µg/mL (≈ 0.0122 µM) each time. In addition, the Ratio with Escherichia coli [14] and in the series on Escherichia coli [15] was 8 in each case.
Take `CCn1cc(C(=O)NCC2=C(C(=O)O)N3C(=O)[C@@H](NC(=O)/C(=N\OC(C)(C)C(=O)O)c4csc(N)n4)C3SC2)c(=O)c2cc(O)c(O)cc21` (stereo in doubt): the minimum inhibitory concentration (MIC) in the series with Escherichia coli [12] and in the series on Escherichia coli [13] was 0.008 µg/mL (≈ 0.0112 µM) each time. Moreover, the area under the curve (AUC) in [16] came to 238 µg·h/mL. In addition, the half-life in series [17] was 3.47 h. For the same molecule, the Ratio in the series on Escherichia coli [14] and in the series with Escherichia coli [15] was 8 in each case. Further, the fraction unbound in series [18] is 0.008.
As to `O=C(O)c1cn(C2CC2)c2cc(N3CCNCC3)c(F)cc2c1=O` [CIPROFLOXACIN], the MIC with Escherichia coli [19] was 0.025 µg/mL (≈ 0.0754 µM); in the series on Escherichia coli [20], 0.0011 µg/mL (≈ 0.00332 µM); in the series with Escherichia coli [21], 40 µg/mL (≈ 121 µM); in the series with Escherichia coli [22], no more than 0.003 µg/mL; with Escherichia coli [23], 64 µg/mL (≈ 193 µM); with Escherichia coli [24], 0.0063 µg/mL (≈ 0.019 µM). Further, the minimal inhibitory concentration (MIC) in the series with Escherichia coli [25] was no more than 0.03 µg/mL; with Escherichia coli [27] it was no more than 0.015 µg/mL; in the series with Escherichia coli [28], 8.21 µg/mL (≈ 24.8 µM); with Escherichia coli [31], 64 µg/mL (≈ 193 µM). In addition, the ED50 with Escherichia coli [26] (setting [38]) turned out to be 0.45 mg/kg; in the series on Escherichia coli [29], 0.3 mg/kg; with Escherichia coli [32], 1 mg/kg. Besides, the MIC90 in the series on Escherichia coli [30] was found to be 4 µg/mL (≈ 12.1 µM). The EC50 in the series with Escherichia coli [33] is 1.25 mg/kg.
On to `CO/N=C1\CN(c2nc3c(cc2F)c(=O)c(C(=O)O)cn3C2CC2)CC1CN` (centres undefined) [GEMIFLOXACIN], for which, in the series with Escherichia coli [34], the MIC90 came to 32 µg/mL (≈ 82.2 µM).
As for `C[C@H]1COc2c(N3CCN(C)CC3)c(F)cc3c(=O)c(C(=O)O)cn1c23.C[C@H]1COc2c(N3CCN(C)CC3)c(F)cc3c(=O)c(C(=O)O)cn1c23.O` [LEVOFLOXACIN], the MIC with Escherichia coli [23] and in the series on Escherichia coli [31] was 32 µg/mL throughout. The MIC90 in the series on Escherichia coli [34] amounted to 32 µg/mL; in the series on Escherichia coli [30], 4 µg/mL.
Regarding `CC1COc2c(N3CCN(C)CC3)c(F)cc3c(=O)c(C(=O)O)cn1c23` (centres undefined) [OFLOXACIN], the ED50 came out at 0.55 mg/kg in the series on Escherichia coli [26] and 1.1 mg/kg in the series with Escherichia coli [26] (setting [38]). Besides, the MIC worked out at 0.2 µg/mL (≈ 0.553 µM) in the series on Escherichia coli [35] and 0.1 µg/mL (≈ 0.277 µM) with Escherichia coli [37]. Further, in the series with Escherichia coli [36], the zone of inhibition at 5 µg/disc came out at 22 mm.

A word on the MIC: it is the smallest concentration in the dilution series that meets the test's criterion for growth inhibition. Usually IC50 stands for the concentration that gives 50% inhibition. Read a high IC50 as lower potency. A word on the AUC: it is concentration integrated over time. The low end stands for less exposure, the high end for more exposure. As usually defined, the half-life is how long it takes for the measured level to halve. Broadly, the MIC90 is an inhibitory concentration at the 90% level, which refers to growth in some studies and to a panel of isolates in others.
